{"source": "patent US20250177481A1", "about": "“SCO-spondin-derived polypeptides for enhancing synaptic transmission” (AXOLTIS PHARMA, priority 2021, published 2025)", "key": {"[1]": {"tested_on": "subchronic PCP-induced cognitive deficits in mice", "assay": "T-maze continuous alternation task in subchronic PCP mice", "assay_type": "in vivo, Swiss CD-1 mice", "conditions": "n=10", "description": "Phenycyclidine (PCP) is an antagonist of NMDA receptor, its administration in healthy humans produces schizophrenia-like symptoms, therefore PCP is often used to mimic schizophrenia in rodents. […] In addition, brain samples were collected shorlty after the T-Maze test to measure the levels of cerebral biomarkers involved in synaptic plasticity.\nSixty (60) male Swiss CD-1 mice were purchased from Janvier Labs (Le Genest-Saint-Isle, France) one week before the start of the study for acclimation. Mice were group-housed (6-8 mice per Eurostandard type Ill cage) and maintained in a room with controlled temperature (21-22° C.) under a reversed 12 h/12 h light-dark cycle (lights on: 5:[…]; lights off: 05:30 am) with food and water available ad libitum. The weight of mice ranged from 25.9 and 36.4 g. […]\nNicotine used as a positive control was administered at a dose of 0.4 mg/kg intraperitoneally 30 minutes prior to the T-maze trial\nAfter administration of compounds at different timepoints all animals were tested for continuous alternation task in the T-Maze. The T-maze apparatus was made of gray Plexiglas with a main stem (55-cm long×10-cm wide×20-cm high) and two arms (30-cm long×10-cm wide×20-cm high) positioned at a 90-degree angle relative to the main stem. A start box (15-cm long×10-cm wide) was separated from the main stem by a guillotine door. Horizontal doors were also provided to close specific arms during the force choice alternation task. The experimental protocol consisted in one single session that started with 1 “forced-choice” trial, followed by 14 “free-choice” trials (Gerlai, 1998). In the first “forced-choice” trial, the mouse was confined 5 s in the start arm and then released while either the left or right goal arm was blocked by closing the sliding door. Then, it walked through the maze, eventually entered the open goal arm, and then returned to the start position. Immediately after the mouse came back to the start position, the left or right goal door was opened (i.e. the two goal doors were opened), and the mouse could choose freely between the left and right goal arms (first “free choice trial”). The mouse was considered as entered in the arm when it placed its four paws in the arm. The opposite goal door was then closed until the animal returned to the start arm. Then, a second “free choice trial” began by the opening of the closed goal door (i.e. the two goal doors were opened), leaving the choice to the mouse to enter either into the right or the left arm. The session was considered finished as soon as 14 free-choice trials had been performed in less than 10 min, and the mouse was removed from the maze. The time needed to reach these 14 “free-choices” was recorded.\nThe percent of spontaneous alternations was calculated as number of spontaneous alternations divided by the number of free-choice trials, an index of spatial short-term working memory. The apparatus was cleaned between each animal using alcohol (70%). Urine and feces were removed from the maze. During the trials, animal handling and the visibility of the operator were minimized as much as possible. Animals were tested in a random and blind manner."}, "[2]": {"biological_target": "T1, GluN2B subunit of NMDAR (isolated evoked NMDAR currents in CA1 hippocampal neurons) (Mus musculus, UniProt Q01097)", "T1 construct": "Sagittal hippocampal brain slices were obtained using standard brain slicing methods; from tissue; host or cells: acute hippocampal slices of C57Bl6/J mice, CA1 pyramidal neurons", "T1 sequence (Q01097 27-1482, other chains not shown)": "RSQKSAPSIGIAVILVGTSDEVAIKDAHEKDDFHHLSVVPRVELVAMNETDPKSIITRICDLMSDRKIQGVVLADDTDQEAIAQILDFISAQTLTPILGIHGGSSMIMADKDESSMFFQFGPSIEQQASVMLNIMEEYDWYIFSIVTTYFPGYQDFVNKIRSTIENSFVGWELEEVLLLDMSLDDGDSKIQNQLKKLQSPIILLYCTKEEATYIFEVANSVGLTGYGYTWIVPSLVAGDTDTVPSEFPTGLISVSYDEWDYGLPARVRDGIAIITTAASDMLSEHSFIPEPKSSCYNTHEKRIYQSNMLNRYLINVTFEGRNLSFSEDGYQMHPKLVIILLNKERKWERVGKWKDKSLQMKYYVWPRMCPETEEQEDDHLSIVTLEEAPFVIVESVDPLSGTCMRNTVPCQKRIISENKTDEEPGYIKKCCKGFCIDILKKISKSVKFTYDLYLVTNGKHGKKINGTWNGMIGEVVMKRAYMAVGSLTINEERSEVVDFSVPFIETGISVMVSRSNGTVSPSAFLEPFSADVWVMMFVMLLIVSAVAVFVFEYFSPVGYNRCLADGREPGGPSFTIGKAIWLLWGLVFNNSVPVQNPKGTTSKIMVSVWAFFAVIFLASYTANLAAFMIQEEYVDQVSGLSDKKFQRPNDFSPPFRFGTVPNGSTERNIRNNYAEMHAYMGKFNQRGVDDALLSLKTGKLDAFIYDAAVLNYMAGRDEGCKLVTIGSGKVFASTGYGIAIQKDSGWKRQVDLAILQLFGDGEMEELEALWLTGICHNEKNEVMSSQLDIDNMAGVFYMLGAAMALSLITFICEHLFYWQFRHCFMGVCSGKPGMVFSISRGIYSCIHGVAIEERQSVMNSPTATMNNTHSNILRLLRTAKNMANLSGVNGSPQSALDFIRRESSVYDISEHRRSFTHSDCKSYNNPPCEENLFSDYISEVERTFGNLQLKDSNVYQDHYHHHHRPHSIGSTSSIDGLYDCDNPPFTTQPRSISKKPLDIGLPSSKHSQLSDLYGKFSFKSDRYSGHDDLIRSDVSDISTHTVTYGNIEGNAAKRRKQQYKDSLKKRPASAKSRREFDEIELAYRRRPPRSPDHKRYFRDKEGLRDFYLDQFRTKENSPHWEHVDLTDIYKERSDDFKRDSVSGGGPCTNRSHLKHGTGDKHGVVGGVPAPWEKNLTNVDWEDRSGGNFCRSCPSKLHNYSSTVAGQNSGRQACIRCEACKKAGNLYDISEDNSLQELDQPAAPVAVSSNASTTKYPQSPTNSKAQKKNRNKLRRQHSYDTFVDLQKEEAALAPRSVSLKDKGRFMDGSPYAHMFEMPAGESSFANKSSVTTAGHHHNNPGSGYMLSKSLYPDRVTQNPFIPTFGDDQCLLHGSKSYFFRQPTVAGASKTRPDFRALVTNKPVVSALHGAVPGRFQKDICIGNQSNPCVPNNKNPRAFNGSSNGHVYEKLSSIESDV", "assay": "patch-clamp phase 2: NMDAR EPSCs with GluN2A subunits blocked by NVP-AAM077", "assay_type": "cell-based, C57Bl6/J mice", "conditions": "NVP-AAM077 0.4 μM alone; control = 100; mean of 10 cells", "description": "(§1) Selective antagonists of GluN2A and GluN2B subunits were also used.\n(§2) Twelve (C57Bl6/J) male mice 4-5 weeks-old were obtained from Charles River, France and housed in an animal facility. Animal care was compliant with national and local Ethics committee recommendations. Sagittal hippocampal brain slices were obtained using standard brain slicing methods (approximately 6 slices per mouse) (Knobloch et al. 2007). Mice were anesthetized with isoflurane and then decapitated. […]\n(§3) The signal was amplified with an Axopatch 200B amplifier (Molecular Devices, Union City, CA), digitized by a Digidata 1550 interface (Molecular Devices). Recordings were acquired using Clampex 10 (Molecular Devices) and analyzed with Clampfit (Molecular Devices). […]\n(§4) A total of 12 mice was dedicated to the study. A total of 23 neurons were recorded (10 per group (phases 1 and 2) and 3 in a control phase (phase 0) as follow. In each recording session, 10 EPSCs were induced in response to Schaffer collateral stimulations. Measurements of the amplitudes (average of 10 EPCS) were assessed. Phase 0 represented a validation phase aiming at confirming that GluN2A and GluN2B were the predominant NR2 subunits involved in the EPSCs evoked by Schaffer collateral stimulation. We expected the residual current at the end of phase 0 to be minimal."}, "[3]": {"tested_on": "NMDA EPSCs in hippocampal CA1 pyramidal neurons", "assay": "patch-clamp phase 0: sequential application of NVP-AAM077 and Ifenprodil on NMDA EPSCs", "assay_type": "cell-based, C57Bl6/J mice", "conditions": "3 cells, data not shown", "experimental": "Twelve (C57Bl6/J) male mice 4-5 weeks-old were obtained from Charles River, France and housed in an animal facility. Animal care was compliant with national and local Ethics committee recommendations. Sagittal hippocampal brain slices were obtained using standard brain slicing methods (approximately 6 slices per mouse) (Knobloch et al. 2007). Mice were anesthetized with isoflurane and then decapitated. […] Acute slices (350 μm thick) were prepared using a vibratome (VT 1000S; Leica Microsystems, Bannockburn, IL). Sections were incubated in standard aCSF at room temperature for at least 1 h before recordings. […] Recordings were acquired using Clampex 10 (Molecular Devices) and analyzed with Clampfit (Molecular Devices). […] A total of 23 neurons were recorded (10 per group (phases 1 and 2) and 3 in a control phase (phase 0) as follow. In each recording session, 10 EPSCs were induced in response to Schaffer collateral stimulations. Measurements of the amplitudes (average of 10 EPCS) were assessed. Phase 0 represented a validation phase aiming at confirming that GluN2A and GluN2B were the predominant NR2 subunits involved in the EPSCs evoked by Schaffer collateral stimulation. We expected the residual current at the end of phase 0 to be minimal."}, "[4]": {"biological_target": "T2, GluN2A subunit of NMDAR (isolated evoked NMDAR currents in CA1 hippocampal neurons) (Mus musculus, UniProt P35436)", "T2 construct": "Sagittal hippocampal brain slices were obtained using standard brain slicing methods; from tissue; host or cells: acute hippocampal slices of C57Bl6/J mice, CA1 pyramidal neurons", "T2 sequence (P35436 23-1464, other chains not shown)": "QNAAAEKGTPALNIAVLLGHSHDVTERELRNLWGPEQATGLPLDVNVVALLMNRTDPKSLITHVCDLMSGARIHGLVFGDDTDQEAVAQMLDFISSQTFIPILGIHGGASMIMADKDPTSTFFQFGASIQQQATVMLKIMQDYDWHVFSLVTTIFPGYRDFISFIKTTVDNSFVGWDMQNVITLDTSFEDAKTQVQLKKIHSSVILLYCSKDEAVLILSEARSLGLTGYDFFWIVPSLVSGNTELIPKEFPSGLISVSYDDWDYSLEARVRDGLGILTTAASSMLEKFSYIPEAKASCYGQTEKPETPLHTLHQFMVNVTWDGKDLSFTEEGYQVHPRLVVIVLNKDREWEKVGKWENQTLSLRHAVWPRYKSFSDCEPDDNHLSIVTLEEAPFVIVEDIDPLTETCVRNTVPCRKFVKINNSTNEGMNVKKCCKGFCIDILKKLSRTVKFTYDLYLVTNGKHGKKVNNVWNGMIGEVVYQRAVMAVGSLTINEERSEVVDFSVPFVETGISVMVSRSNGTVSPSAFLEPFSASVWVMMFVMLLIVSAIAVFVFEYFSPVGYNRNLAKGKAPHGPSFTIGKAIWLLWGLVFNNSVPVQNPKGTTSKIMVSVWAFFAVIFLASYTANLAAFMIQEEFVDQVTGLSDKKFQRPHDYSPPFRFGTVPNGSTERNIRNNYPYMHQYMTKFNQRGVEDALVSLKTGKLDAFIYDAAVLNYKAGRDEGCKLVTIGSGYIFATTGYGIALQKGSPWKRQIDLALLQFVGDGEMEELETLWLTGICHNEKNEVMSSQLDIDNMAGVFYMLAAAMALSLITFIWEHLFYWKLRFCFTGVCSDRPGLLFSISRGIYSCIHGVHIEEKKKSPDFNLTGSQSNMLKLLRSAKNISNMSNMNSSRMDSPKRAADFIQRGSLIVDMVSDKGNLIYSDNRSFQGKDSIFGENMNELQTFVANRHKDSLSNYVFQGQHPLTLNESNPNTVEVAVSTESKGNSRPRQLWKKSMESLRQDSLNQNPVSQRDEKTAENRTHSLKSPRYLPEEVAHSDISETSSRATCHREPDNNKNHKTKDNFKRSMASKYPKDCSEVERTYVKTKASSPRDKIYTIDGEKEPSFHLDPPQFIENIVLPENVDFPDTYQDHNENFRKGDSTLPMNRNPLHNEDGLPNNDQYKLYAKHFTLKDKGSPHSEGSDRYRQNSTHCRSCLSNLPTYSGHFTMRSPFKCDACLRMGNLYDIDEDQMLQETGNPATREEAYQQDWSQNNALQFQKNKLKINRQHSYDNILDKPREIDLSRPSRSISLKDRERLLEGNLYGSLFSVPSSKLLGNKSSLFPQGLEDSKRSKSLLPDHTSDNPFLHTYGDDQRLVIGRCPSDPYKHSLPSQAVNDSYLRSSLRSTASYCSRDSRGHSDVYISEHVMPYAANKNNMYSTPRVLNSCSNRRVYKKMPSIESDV", "assay": "patch-clamp phase 1: NMDAR EPSCs with GluN2B subunits blocked by Ifenprodil", "assay_type": "cell-based, C57Bl6/J mice", "conditions": "Ifenprodil 3 μM alone; control = 100; mean of 10 cells", "description": "as §1, §2, §3, §4"}, "[5]": {"tested_on": "scopolamine-induced spatial short-term working memory deficits in mice", "assay": "Y-maze spontaneous alternation in the scopolamine mouse model of amnesia", "assay_type": "in vivo, Swiss mice", "conditions": "for spontaneous alternance in Y-maze: n=6; for effect on scopolamine-induced spatial short-term working memory impairments (Y-maze): data not shown", "experimental": "Male Swiss mice, weighing 30-35 g, from JANVIER (Saint Berthevin, France), were housed in groups with access to food and water ad libitum, except during behavioral experiments. They were kept in a temperature and humidity-controlled animal facility on a 12 h/12 h light/dark cycle (lights off at 07:[…]). Mice were numbered by marking their tail with permanent markers. All animal procedures were conducted in strict adherence to the European Union directive of Sep. 22, 2010 (2010/63/UE). In each cage (n=6 per cage), treatment regimen was the same. Animals were tested in a random and blind manner.\nDonepezil (DPZ) used as positive control was administered per os at a dose of 1 mg/kg once 1 h before the YM test.\nScopolamine was administered at a dose of 0.5 mg/kg by subcutaneous injection 30 minutes before the YM session.\nAfter administration of compounds at different timepoints all animals were tested for spontaneous alternation performance in the YM, an index of spatial working memory. The YM was designed according to Itoh and collaborators (1993) and Hiramatsu and Inoue (1999) and is made of grey polyvinylchloride. Each arm is 40-cm long, 13-cm high, 3-cm wide at the bottom, 10-cm wide at the top, and converging at an equal angle. Each mouse was placed at the end of one arm and allowed to move freely through the maze during an 8-min session. The series of arm entries, including possible returns into the same arm, were checked visually. An alternation was defined as entries into all three arms on consecutive occasions. The number of maximum alternations is therefore the total number of arm entries minus two and the percentage of alternation was calculated as (actual alternations/maximum alternations)×100. Parameters included the percentage of alternation, called memory index, and total number of arm entries, called exploration index (Maurice et al., 1996, 1988; Meunier et al., 2006; Villard et al., 2009, 2011).\nAnimals showing an extreme behavior (alternation percentage <20% or >90% or number of arm entries <10) would have been discarded from the calculation. No animal was discarded accordingly."}}, "note": "Several values for one entry are separate records, joined by “and”; a condition that tells them apart may be missing. Equal entries are not always repeated."}
{"molecule": "CN1CCCC1c1cccnc1", "note": "(stereo not shown) [Nicotine, reference compound]", "values": [{"measurement": "Spontaneous alternations in T-maze", "setting": "[1]; PCP + 0.4 mg/kg i.p. 30 min before trial (D14), PCP alone 30.71, control 66.43, 0.4 mg/kg", "value": "62% and 62.14%"}]}
{"molecule": "C[C@H](NC(c1cccc2[nH]c(=O)c(=O)[nH]c12)P(=O)(O)O)c1ccc(Br)cc1", "note": "(stereo partly shown) [NVP-AAM077]", "values": [{"measurement": "Normalized amplitude of evoked isolated NMDA excitatory postsynaptic currents", "setting": "[2]", "value": "56.35 % of control"}, {"measurement": "NMDA EPSCs amplitude", "setting": "[3]; NVP-AAM077 0.4 μM", "value": "significantly decreased"}]}
{"molecule": "CC(C(O)c1ccc(O)cc1)N1CCC(Cc2ccccc2)CC1", "note": "(stereo not shown) [Ifenprodil]", "values": [{"measurement": "Normalized amplitude of evoked isolated NMDA excitatory postsynaptic currents", "setting": "[4]", "value": "78.74 % of control"}, {"measurement": "NMDA EPSCs amplitude", "setting": "[3]; NVP-AAM077 0.4 μM + Ifenprodil 3 μM", "value": "significantly decreased"}]}
{"molecule": "CN1[C@@H]2C[C@@H](OC(=O)[C@H](CO)c3ccccc3)C[C@H]1[C@@H]1O[C@@H]12", "note": "[Scopolamine, reference compound]", "values": [{"measurement": "spontaneous alternance in Y-maze", "setting": "[5]; scopolamine 0.5 mg/kg s.c. 30 min before test, alone, control 70, mean", "value": 45, "unit": "%"}]}
{"molecule": "c1ccc(C2(N3CCCCC3)CCCCC2)cc1", "note": "[PCP, phencyclidine, reference compound]", "values": [{"measurement": "Spontaneous alternations in T-maze", "setting": "[1]; PCP 0.2 mg/kg s.c. twice daily D1-D11, vehicle-treated, saline control 66.43", "value": "31% and 30.71%"}]}
{"molecule": "W-S-G-W-S-S-C-S-R-S-C-G [NX210] (WSGWSSCSRSCG; reduced linear form)", "values": [{"measurement": "effect on scopolamine-induced spatial short-term working memory impairments (Y-maze)", "setting": "[5]; 15 mg/kg i.p. once 48 h before the test", "value": "maintained but less pronounced"}, {"measurement": "effect on scopolamine-induced spatial short-term working memory impairments (Y-maze)", "setting": "[5]; administered i.p. 2 h or 1 h before the test", "value": "No effect"}, {"measurement": "effect on scopolamine-induced spatial short-term working memory impairments (Y-maze)", "setting": "[5]; dose lower than 10 mg/kg i.p.", "value": "No effect"}, {"measurement": "dose with maximum effect on scopolamine-induced memory impairments (Y-maze)", "setting": "[5]; i.p. once 24 h before the test, bell-shaped dose-response curve", "value": 15, "unit": "mg/kg"}, {"measurement": "spontaneous alternance in Y-maze", "setting": "[5]; scopolamine + 10 mg/kg i.p. 24 h before test, scopolamine alone 45, control 70, 10 mg/kg", "value": 59, "unit": "%"}, {"measurement": "spontaneous alternance in Y-maze", "setting": "[5]; scopolamine + 15 mg/kg i.p. 24 h before test, scopolamine alone 45, control 70, 15 mg/kg", "value": 69, "unit": "%"}]}
